Test results: ChEMBL document CHEMBL6182881, “Optimized ebselen derivatives as novel potent Escherichia coli β-glucuronidase covalent allosteric inhibitors” (Eur J Med Chem, 2025)
pIC50, pKi: −log10 of the molar value. The source made the active and inactive calls. The calls are words filed in the database; no cut-off is given here.

Legend:
Escherichia coli [1] = experiment: Covalent allosteric inhibition of recombinant Escherichia coli beta-glucuronidase using PNPG as substrate at 10 uM incubated for 30 mins by absorbance based microplate reader assay relative to control
[2] = Covalent allosteric inhibition of recombinant Escherichia coli beta-glucuronidase using PNPG as substrate incubated for 30 mins by absorbance based microplate reader assay
[3] = Cytotoxicity against human HCT-116 cells assessed as cell viability at 5 uM incubated for 24 hrs by CCK-8 assay relative to control; type: toxicity, cell-based; details: read-out: Activity
Escherichia coli [4] = experiment: Covalent binding affinity to recombinant Escherichia coli beta-glucuronidase at Cys28 residue by LC-MS/MS analysis
Escherichia coli [5] = experiment: Covalent binding affinity to recombinant Escherichia coli beta-glucuronidase at Cys197 residue by LC-MS/MS analysis
[6] = Covalent reversible binding affinity to recombinant Escherichia coli beta-glucuronidase assessed as apparent inhibition constant incubated for 30 mins; details: read-out: Ki(app)
Escherichia coli [7] = experiment: Covalent reversible binding affinity to recombinant Escherichia coli beta-glucuronidase using PNPG as substrate at 10 times IC50 pre-incubated for 30 mins followed by substrate addition by jump dilution assay
Escherichia coli [8] = experiment: Covalent binding affinity to recombinant Escherichia coli beta-glucuronidase at Cys443 residue by LC-MS/MS analysis
Escherichia coli [9] = experiment: Potency index, ratio of IC50 for amoxapine to test compound IC50 for covalent allosteric inhibition of recombinant Escherichia coli beta-glucuronidase using PNPG as substrate incubated for 30 mins by absorbance based microplate reader assay
[10] = Covalent irreversible binding affinity to recombinant Escherichia coli beta-glucuronidase assessed as inhibition constant incubated for 30 mins
Escherichia coli [11] = experiment: Covalent irreversible binding affinity to recombinant Escherichia coli beta-glucuronidase using PNPG as substrate at 10 times IC50 pre-incubated for 30 mins followed by substrate addition by jump dilution assay
Escherichia coli [12] = experiment: Covalent irreversible binding affinity to recombinant Escherichia coli beta-glucuronidase assessed as kinact/ki ratio incubated for 30 mins
Escherichia coli [13] = experiment: Covalent irreversible binding affinity to recombinant Escherichia coli beta-glucuronidase assessed as inactivation constant incubated for 30 mins
[14] = Binding affinity to Escherichia coli beta-glucuronidase assessed as inhibition constant
[15] = Covalent inhibition of Escherichia coli beta-glucurodinase

**Q.** For `COC(=O)c1ccc2c(=O)n(-c3cccc4cccnc34)[se]c2c1`, which inhibition (Escherichia coli [1]) is on record?
**A.** 98.4%

**Q.** What about the pIC50 [2] of the same molecule?
**A.** 7.20

**Q.** With `CCCc1nnc(-n2[se]c3ccccc3c2=O)s1` as the molecule, how does the inhibition (Escherichia coli [1]) read?
**A.** < 90%

**Q.** What does the source list for `COC(=O)[C@H](Cc1ccc(O)cc1)n1[se]c2ccccc2c1=O`?
**A.** viability at 24 h, 5 µM [3]: 86.2%; inhibition (Escherichia coli [1]): 96.9%; pIC50 [2]: 7.67

**Q.** With `CN(C)CCn1[se]c2ccccc2c1=O` as the molecule, how does the inhibition (Escherichia coli [1]) read?
**A.** > 90%

**Q.** With `O=c1c2ccccc2[se]n1-c1ccc(Cl)cc1` as the molecule, how does the inhibition (Escherichia coli [1]) read?
**A.** 94.3%

**Q.** What about the pIC50 [2] of the same molecule?
**A.** 6.90

**Q.** For `CNC(=O)c1cc(Oc2ccc(-n3[se]c4ccccc4c3=O)cc2)ccn1`, which viability at 24 h, 5 µM [3] is on record?
**A.** 86.2%

**Q.** What about the inhibition (Escherichia coli [1]) of the same molecule?
**A.** 96.2%

**Q.** What about the pIC50 [2] of the same molecule?
**A.** 6.35

**Q.** Which inhibition (Escherichia coli [1]) does the source give for `O=c1c2ccccc2[se]n1-c1ccc(C(F)(F)F)cc1` here?
**A.** < 90%

**Q.** What does the source list for `Cc1nnc(-n2[se]c3ccccc3c2=O)o1`?
**A.** inhibition (Escherichia coli [1]): 97.5%; pIC50 [2]: 6.94

**Q.** For `CC(C)c1nnc(-n2[se]c3ccccc3c2=O)s1`, which inhibition (Escherichia coli [1]) is on record?
**A.** < 90%

**Q.** Which inhibition (Escherichia coli [1]) does the source give for `C=CCn1[se]c2ccccc2c1=O` here?
**A.** > 90%

**Q.** Which inhibition (Escherichia coli [1]) does the source give for `COC(=O)[C@H](Cc1c[nH]c2ccccc12)n1[se]c2ccccc2c1=O` here?
**A.** > 90%

**Q.** For `O=c1c2ccccc2[se]n1-c1cn[nH]c1`, which Activity (Escherichia coli [4]) is on record?
**A.** Active

**Q.** What about the viability at 24 h, 5 µM [3] of the same molecule?
**A.** 71.5%

**Q.** What about the Activity (Escherichia coli [5]) of the same molecule?
**A.** Active

**Q.** What about the pKi [6] of the same molecule?
**A.** 7.63

**Q.** And the inhibition (Escherichia coli [1])?
**A.** 98.3%

**Q.** And the Activity (Escherichia coli [7])?
**A.** Active

**Q.** And the Activity (Escherichia coli [8])?
**A.** Active

**Q.** What about the Ratio IC50 (Escherichia coli [9]) of the same molecule?
**A.** 15.6

**Q.** And the pIC50 [2]?
**A.** 7.89

**Q.** Which inhibition (Escherichia coli [1]) does the source give for `O=c1c2ccccc2[se]n1-c1nccs1` here?
**A.** < 90%

**Q.** With `Cn1cc(-n2[se]c3ccccc3c2=O)cn1` as the molecule, how does the inhibition (Escherichia coli [1]) read?
**A.** 94.8%

**Q.** And the pIC50 [2]?
**A.** 7.38

**Q.** With `CC(C)(C)c1nnc(-n2[se]c3ccccc3c2=O)s1` as the molecule, how does the inhibition (Escherichia coli [1]) read?
**A.** > 90%

**Q.** Which viability at 24 h, 5 µM [3] does the source give for `COC(=O)[C@H](CCCCNC(=O)OC(C)(C)C)n1[se]c2ccccc2c1=O` here?
**A.** 86.2%

**Q.** What about the inhibition (Escherichia coli [1]) of the same molecule?
**A.** 94.4%

**Q.** And the pIC50 [2]?
**A.** 7.18

**Q.** For `CCc1nnc(-n2[se]c3ccccc3c2=O)s1`, which inhibition (Escherichia coli [1]) is on record?
**A.** < 90%

**Q.** Which inhibition (Escherichia coli [1]) does the source give for `O=c1c2ccccc2[se]n1-c1cccnc1` here?
**A.** > 90%

**Q.** With `Cc1cc(-n2[se]c3ccccc3c2=O)n[nH]1` as the molecule, how does the inhibition (Escherichia coli [1]) read?
**A.** < 90%

**Q.** For `C=CCCn1[se]c2ccccc2c1=O`, which inhibition (Escherichia coli [1]) is on record?
**A.** < 90%

**Q.** For `O=c1c2ccccc2[se]n1-c1ccc2[nH]ccc2c1`, which inhibition (Escherichia coli [1]) is on record?
**A.** > 90%

**Q.** For `O=c1c2ccccc2[se]n1-c1nnc(C2CCCC2)s1`, which inhibition (Escherichia coli [1]) is on record?
**A.** < 90%

**Q.** Which inhibition (Escherichia coli [1]) does the source give for `O=c1c2ccccc2[se]n1-c1cc(C2CC2)[nH]n1` here?
**A.** < 90%

**Q.** What does the source list for `CC(=O)OC[C@H]1O[C@@H](n2cnc3c(-n4[se]c5ccccc5c4=O)ncnc32)[C@H](OC(C)=O)[C@@H]1OC(C)=O`?
**A.** pKi [10]: 5.23; viability at 24 h, 5 µM [3]: 81%; Activity (Escherichia coli [5]): Active; Activity (Escherichia coli [11]): Active; K (Escherichia coli [12]): 21300 M⁻¹ s⁻¹; Kinact (Escherichia coli [13]): 7.6 min⁻¹; inhibition (Escherichia coli [1]): 98.8%; pIC50 [2]: 7.13

**Q.** For `COc1ccc(-n2[se]c3ccccc3c2=O)cc1`, which inhibition (Escherichia coli [1]) is on record?
**A.** < 90%

**Q.** For `O=C(O)c1ccc(-n2[se]c3ccccc3c2=O)cc1`, which viability at 24 h, 5 µM [3] is on record?
**A.** 86.2%

**Q.** And the inhibition (Escherichia coli [1])?
**A.** 96.8%

**Q.** And the pIC50 [2]?
**A.** 7.25

**Q.** For `O=c1[nH][se]c2ccccc12`, which inhibition (Escherichia coli [1]) is on record?
**A.** 72.1%

**Q.** With `Clc1ccc2c(c1)C(N1CCNCC1)=Nc1ccccc1O2` [AMOXAPINE] as the molecule, how does the inhibition (Escherichia coli [1]) read?
**A.** 88.9%

**Q.** What about the pKi [14] of the same molecule?
**A.** 6.74

**Q.** And the pIC50 [2]?
**A.** 6.70

**Q.** With `O=c1c2ccccc2[se]n1CC(F)(F)F` as the molecule, how does the inhibition (Escherichia coli [1]) read?
**A.** 94.7%

**Q.** And the pIC50 [2]?
**A.** 7.11

**Q.** For `O=c1c2ccccc2[se]n1-c1cnc2[nH]ncc2c1`, which inhibition (Escherichia coli [1]) is on record?
**A.** < 90%

**Q.** With `O=c1c2ccccc2[se]n1-c1nnc(CC(F)(F)F)s1` as the molecule, how does the inhibition (Escherichia coli [1]) read?
**A.** 6.11%

**Q.** With `Oc1ccccc1-c1nc2cc(Cl)cc(Cl)c2[nH]1` as the molecule, how does the pIC50 [15] read?
**A.** 5.35

**Q.** Which results are given for `O=c1c2ccccc2[se]n1CCO`?
**A.** viability at 24 h, 5 µM [3]: 86.2%; inhibition (Escherichia coli [1]): 96.2%; pIC50 [2]: 7.74

**Q.** Which inhibition (Escherichia coli [1]) does the source give for `O=c1c2ccccc2[se]n1-c1ccccn1` here?
**A.** < 90%

**Q.** Which inhibition (Escherichia coli [1]) does the source give for `O=c1c2ccccc2[se]n1-c1ccc(F)cc1` here?
**A.** > 90%

**Q.** With `Cc1nnc(-n2[se]c3ccccc3c2=O)s1` as the molecule, how does the inhibition (Escherichia coli [1]) read?
**A.** < 90%

**Q.** For `COC(=O)[C@H](CC(C)C)NC(=O)Cn1[se]c2ccccc2c1=O`, which inhibition (Escherichia coli [1]) is on record?
**A.** > 90%

**Q.** Which inhibition (Escherichia coli [1]) does the source give for `COC(=O)[C@H](CSC)n1[se]c2ccccc2c1=O` here?
**A.** > 90%

**Q.** For `O=c1c2ccccc2[se]n1-c1nncs1`, which inhibition (Escherichia coli [1]) is on record?
**A.** < 90%

**Q.** Which inhibition (Escherichia coli [1]) does the source give for `O=c1c2ccccc2[se]n1-c1nnc(C2CCC(F)(F)CC2)s1` here?
**A.** < 90%

**Q.** For `CN1CCC(n2[se]c3ccccc3c2=O)CC1`, which inhibition (Escherichia coli [1]) is on record?
**A.** 93.9%

**Q.** What about the pIC50 [2] of the same molecule?
**A.** 7.23

**Q.** Which inhibition (Escherichia coli [1]) does the source give for `O=c1c2ccccc2[se]n1C12CC3CC(CC(C3)C1)C2` here?
**A.** < 90%

**Q.** With `O=c1c2ccccc2[se]n1-c1ccccc1` as the molecule, how does the inhibition (Escherichia coli [1]) read?
**A.** < 90%

**Q.** With `O=c1c2ccccc2[se]n1-c1ccc2[nH]ncc2c1` as the molecule, how does the inhibition (Escherichia coli [1]) read?
**A.** < 90%

**Q.** Which inhibition (Escherichia coli [1]) does the source give for `O=c1c2ccccc2[se]n1-c1nnc(C(F)(F)F)s1` here?
**A.** 93.7%

**Q.** What about the pIC50 [2] of the same molecule?
**A.** 6.73

**Q.** Which inhibition (Escherichia coli [1]) does the source give for `Cc1ccc2c(=O)n(Cc3ccccc3)[se]c2c1` here?
**A.** < 90%

**Q.** Which inhibition (Escherichia coli [1]) does the source give for `O=c1c2ccccc2[se]n1C1CCCCC1` here?
**A.** < 90%

**Q.** Which inhibition (Escherichia coli [1]) does the source give for `O=c1[nH][se]c2ccc(C(F)(F)F)cc12` here?
**A.** < 90%

**Q.** Which inhibition (Escherichia coli [1]) does the source give for `CCn1[se]c2ccccc2c1=O` here?
**A.** < 90%

**Q.** Which inhibition (Escherichia coli [1]) does the source give for `O=c1c2ccccc2[se]n1-c1ncc(C(F)(F)F)cc1Cl` here?
**A.** < 90%

**Q.** Which inhibition (Escherichia coli [1]) does the source give for `O=c1c2cc(Br)ccc2[se]n1-c1ccccc1` here?
**A.** < 90%

**Q.** Which results are given for `COC(=O)[C@H](CO)n1[se]c2ccccc2c1=O`?
**A.** viability at 24 h, 5 µM [3]: 86.2%; inhibition (Escherichia coli [1]): 93.8%; pIC50 [2]: 7.32
